Measured values as given in patent publication US7371780B2, “Use of calphostin C to treat drug-resistant tumor cells” (priority 2003, dated 2008).
pIC50: −log10 of the molar value.

Key:
MCF-7 cells [1] = assay: Flow cytometric sub-G1 DNA content, MCF-7; format: cell-based, human; settings: 100 nM calphostin C, 2 h light
Procedure: (§1) For flow cytometric analysis, cells at about 50% to 60% confluence were released from their flasks by trypsin treatment and washed with PBS. After centrifugation at 1000 rpm for 5 min, cells were then fixed by resuspension in 75% ethanol for 2 hours, collected by centrifugation, and resuspended in PI staining solution (see above) for 1 h. For each sample, approximately 2×10^4 cells were analyzed using a Beckman Coulter Epics® Elite flow cytometer. Fluorescence intensity upon stimulation with an argon-ion laser at 488 nm was measured using the PMT4 channel (625DL filter) and plotted against cell number. The percentage of cells with a sub-G1 DNA content was determined by the flow cytometer, adjusting the gates such that only cells with a fluorescence lower than the peak for untreated cells in G1 are counted (see FIG. 4).

[2] = test system: MCF-7TAX (paclitaxel-resistant) cells; assay: Clonogenic assay, MCF-7TAX cells; format: cell-based, human; settings: MCF-7TAX cells; 24 h drug; calphostin C light-activated 2 h
Procedure: (§2) The breast cancer cell line MCF-7 (lot HTB-22) was obtained from the American […] (ATCC) and maintained in Dulbecco's H21 medium (MEM) supplemented with 10% Fetal Bovine Serum (FBS) (HyClone, Logan, Utah) in a humidified atmosphere containing 5% CO2 at 37° C. To establish drug resistant cell lines, MCF-7 cells were grown in the presence of either paclitaxel or doxorubicin, beginning at a concentration 1000-fold below that required to kill 50% of the cells (the IC50). The drug concentration was increased 3-fold every two weeks (two passages), with an aliquot of the cells removed for storage in liquid nitrogen before each increase in concentration. Dose escalation continued until all cells died, after which the cells able to tolerate the highest concentration of drug were thawed for subsequent study. In this way, paclitaxel-resistant (MCF-7TAX) and doxorubicin-resistant (MCF-7DOX) cell lines were established. The IC50 for each drug was determined using a clonogenic assay as outlined below. The drug resistant cells were kept in culture in the presence of the maximally tolerated drug dose. Before each experiment, the cell lines were grown for two days in the absence of drug after which fresh medium containing either calphostin C (Sigma Laboratories, Oakville, ON), doxorubicin (Adriamycin PFS®, USP, Mississauga, ON) or paclitaxel (Taxol, Bristol-Myers Squibb, Montreal, QC) was added at the concentrations indicated.
(§3) The sensitivity of MCF-7, MCF-7TAX and MCF-7DOX cells to calphostin C, paclitaxel or doxorubicin was determined using a clonogenic assay. Briefly, 2.5×10^5 cells were seeded into 25 cm^2 tissue culture flasks in Dulbecco's H21 medium supplemented with 10% FBS. The cells were allowed to grow overnight, after which the medium was removed and replaced with medium containing varying concentrations of paclitaxel, doxorubicin, or calphostin C (after 2 hours of light exposure to activate the molecule). […] The colonies present in 5 randomly selected fields were then counted by visual inspection. […]

[3] = mice, cited from earlier work
MCF-7 cells [4] = assay: Drug uptake (flow cytometry / scintillation counting), MCF-7; format: cell-based, human; settings: 100 nM calphostin C
Procedure: FIG. 5 illustrates the effect of calphostin C (Cal-C) on drug uptake in MCF-7 (square symbols), MCF-7TAX (diamond symbols) and MCF-7DOX (triangular symbols) cells. After one-day growth, the cells were left untreated (closed symbols) or treated with 100 nM calphostin C for 2 h with light activation (open symbols). Cells were then washed and the medium replaced with medium containing 2 μM of doxorubicin (A) or [^3H]-paclitaxel (B). The cells were then trypsinized and drug accumulation measured by flow cytometry (A) or liquid scintillation counting (B) at indicated time points. The figures are representative of three independent experiments.

MCF-7 cells [5] = assay: Clonogenic assay, MCF-7 cells; format: cell-based, human; settings: 24 h drug, calphostin C light-activated 2 h, read-out: IC50 (concentration required to kill or inhibit the growth of 50% of cells)
Procedure: as §2, §3

MCF-7TAX cells = assay: Flow cytometric sub-G1 DNA content, MCF-7TAX; format: cell-based, human; settings: 100 nM calphostin C, 2 h light
Procedure: as §1

MCF-7DOX cells = assay: Flow cytometric sub-G1 DNA content, MCF-7DOX; format: cell-based, human; settings: 100 nM calphostin C
Procedure: as §1

SMILES: COc1c(C[C@@H](C)OC(=O)Oc2ccc(O)cc2)c2c3c(C[C@@H](C)OC(=O)c4ccccc4)c(OC)c(=O)c4c(O)cc(OC)c(c5c(OC)cc(O)c(c1=O)c52)c43 [calphostin C]
- time of strong increase in percentage of sub-G1 cells after treatment (MCF-7 cells [1]): 8 h
- pIC50 [2]: 8.04
- clearance rate t1/2 ([3]; 40 mg/kg): 1.52 h
- plasma concentration reached without significant cytotoxicity [3]: 2900 nM
- effect on paclitaxel accumulation (MCF-7 cells [4]): decreased paclitaxel accumulation
- pIC50 (MCF-7 cells [5]): 7.88
- time of strong increase in percentage of sub-G1 cells after treatment (MCF-7TAX cells): 8 h
- time of strong increase in percentage of sub-G1 cells after treatment (MCF-7DOX cells; MCF-7ADR (so in the source), 2 h light): 8 h
- percentage of cells with sub-G1 DNA content versus similarly treated MCF-7 or MCF-7TAX cells (MCF-7DOX cells; MCF-7DOX): significantly lower
